Measurements reported in patent US20040176349A1, “Antibacterial composition” (priority 2001, published 2004).
Where two headings read alike, the source gives them in different places.

Key:
VRE 300 2043 = assay: MIC, microbroth dilution (NCCLS), Table 1; format: cell-based, Enterococcus; settings: Enterococcus, VRE
Procedure: (§1) The minimum inhibitory concentration (MIC) of the compounds was determined using the microbroth dilution technique in accordance with NCCLS guidelines, employing Mueller-Hinton broth (National Committee for Clinical Laboratory Standards, NCCLS, 1995 “Methods for dilution antimicrobial susceptibility tests for bacteria that grow aerobically”—approved standard M7-A5).
(§2) The compounds were tested in isolation, at different concentrations.

VRE 300 1590 = assay: MIC, microbroth dilution (NCCLS), Table 1; format: cell-based, Enterococcus; settings: Enterococcus, VRE
Procedure: as §1, §2

VRE 1662 = assay: MIC, microbroth dilution (NCCLS), Table 1; format: cell-based, Enterococcus; settings: Enterococcus, VRE
Procedure: as §1, §2

VRE 300 1562 = assay: MIC, microbroth dilution (NCCLS), Table 1; format: cell-based, Enterococcus; settings: Enterococcus, VRE
Procedure: as §1, §2

E. faecalis 5659 (vanA) = assay: Checkerboard microdilution MIC with PFOB, Table 2; format: cell-based; settings: E. faecalis 5659 (vanA)
Method in brief: (§3)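 Checkerboard microdilution pairing PFOB with other antibiotics. Synergy scored by FIC index: combination FIC <0.5 synergy, 0.5-2.0 indifference, >2 antagonism, with synergy requiring at least a 4-fold reduction for each compound.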

E. faecalis ATCC 29212 = assay: Checkerboard microdilution MIC with PFOB, Table 2; format: cell-based
Method in brief: as §3

E.faecalis 78097 (van B) = assay: Checkerboard microdilution MIC with PFOB, Table 2; format: cell-based
Method in brief: as §3

[1] = tested on: E. faecalis SFZ (vancomycin-sensitive isolate, VSE); assay: Time-kill experiment (viable count); format: cell-based; settings: FIG. 2, ceftazidime alone at 128 mg/L, PFOB alone at 64 mg/L
Description: FIG. 2 is a graph of Log viable count (cfu per ml) against time (in hours) for the VSE isolate in the presence or absence of the drugs. […] The isolates used in the Example are purely illustrative and not especially unusual.

E. faecalis ATCC 10541 = assay: Checkerboard microdilution MIC with PFOB, Table 2; format: cell-based; settings: for MIC: Enterococcus faecalis, ATCC10541
Description: The aim of the study was to detect any synergy between PFOB and the other antibiotics. For the purposes of the study, synergy was defined in accordance with the FIC (fractional inhibitory concentration) index, as disclosed by Lorian (1991, In “Antibiotics in Laboratory Medicine” 3rd edition, Eds. Williams & Wilkins; esp. p 434-443).

E. hirae ATCC 10541 = assay: MIC, microbroth dilution (NCCLS), Table 1; format: cell-based; settings: Enterococcus hirae, ATCC10541
Procedure: as §1, §2

E. faecalis 24592 = assay: MIC, microbroth dilution (NCCLS), Table 1; format: cell-based; settings: Enterococcus faecalis, 24592
Procedure: as §1, §2

E. faecalis SFZ = assay: MIC, microbroth dilution (NCCLS), Table 1; format: cell-based; settings: Enterococcus faecalis
Procedure: as §1, §2

E. faecium NCTC 7171 = assay: MIC, microbroth dilution (NCCLS), Table 1; format: cell-based; settings: Enterococcus faecium, NCTC7171
Procedure: as §1, §2

E. faecalis Phillips = assay: MIC, microbroth dilution (NCCLS), Table 1; format: cell-based; settings: Enterococcus faecalis
Procedure: as §1, §2

E. faecalis NCTC 5957 = assay: MIC, microbroth dilution (NCCLS), Table 1; format: cell-based; settings: Enterococcus faecalis, NCTC5957
Procedure: as §1, §2

Enterococcus strains = assay: MIC against Enterococcus strains, summary of Example 1; format: cell-based; settings: for MIC: Enterococcus, vancomycin-susceptible strains and one vancomycin-resistant strain
Procedure: as §1, §2

CC(C)(O/N=C(\C(=O)N[C@@H]1C(=O)N2C(C(=O)[O-])=C(C[n+]3ccccc3)CS[C@H]12)c1csc(N)n1)C(=O)O [CAZ, ceftazidime]
MIC (VRE 300 2043): > 128 µg/mL
MIC (VRE 300 1590): > 128 µg/mL
MIC (VRE 1662): > 128 µg/mL
MIC (VRE 300 1562): > 128 µg/mL
MIC of partner antibiotic in the presence of PFOB at 0.5 mg/L (E. faecalis 5659 (vanA); PFOB 0.5 mg/L): >64 µg/mL
MIC of partner antibiotic in the presence of PFOB at 1 mg/L (E. faecalis 5659 (vanA); PFOB 1 mg/L): >64 µg/mL
MIC of partner antibiotic in the presence of PFOB at 2 mg/L (E. faecalis 5659 (vanA); PFOB 2 mg/L): >64 µg/mL
MIC of partner antibiotic in the presence of PFOB at 4 mg/L (E. faecalis 5659 (vanA); PFOB 4 mg/L): >64 µg/mL
MIC of partner antibiotic in the presence of PFOB at 8 mg/L (E. faecalis 5659 (vanA); PFOB 8 mg/L): >64 µg/mL
MIC of partner antibiotic in the presence of PFOB at 16 mg/L (E. faecalis 5659 (vanA); PFOB 16 mg/L): >64 µg/mL
MIC of partner antibiotic in the presence of PFOB at 32 mg/L (E. faecalis 5659 (vanA); PFOB 32 mg/L): 0.25 µg/mL
MIC (E. faecalis 5659 (vanA); Enterococcus faecalis, partner antibiotic alone, read-out: MIC (alone) of Partner): > 64 µg/mL
Synergy FIC (E. faecalis ATCC 29212; E. faecalis ATCC 29212, FIC index of PFOB + labelled partner, <0.5 = synergy): 0.188
MIC of partner antibiotic in the presence of PFOB at 0.5 mg/L (E. faecalis ATCC 29212; E. faecalis ATCC 29212, PFOB 0.5 mg/L): >64 µg/mL
MIC of partner antibiotic in the presence of PFOB at 1 mg/L (E. faecalis ATCC 29212; E. faecalis ATCC 29212, PFOB 1 mg/L): >64 µg/mL
MIC of partner antibiotic in the presence of PFOB at 2 mg/L (E. faecalis ATCC 29212; E. faecalis ATCC 29212, PFOB 2 mg/L): >64 µg/mL
MIC of partner antibiotic in the presence of PFOB at 4 mg/L (E. faecalis ATCC 29212; E. faecalis ATCC 29212, PFOB 4 mg/L): 32 µg/mL
MIC of partner antibiotic in the presence of PFOB at 8 mg/L (E. faecalis ATCC 29212; E. faecalis ATCC 29212, PFOB 8 mg/L): 16 µg/mL
MIC of partner antibiotic in the presence of PFOB at 16 mg/L (E. faecalis ATCC 29212; E. faecalis ATCC 29212, PFOB 16 mg/L): 8 µg/mL
MIC of partner antibiotic in the presence of PFOB at 32 mg/L (E. faecalis ATCC 29212; E. faecalis ATCC 29212, PFOB 32 mg/L): 2 µg/mL
MIC (E. faecalis ATCC 29212; Enterococcus faecalis, ATCC29212, E. faecalis ATCC 29212, partner antibiotic alone, read-out: MIC (alone) of Partner): > 64 µg/mL
synergy with PFOB (E. faecalis ATCC 29212; checkerboard, E. faecalis ATCC 29212, vancomycin-susceptible, in words): marked synergy
Synergy FIC (E.faecalis 78097 (van B); E.faecalis 78097 (van B), FIC index of PFOB + labelled partner, <0.5 = synergy): 0.156
MIC of partner antibiotic in the presence of PFOB at 0.5 mg/L (E.faecalis 78097 (van B); E.faecalis 78097 (van B), PFOB 0.5 mg/L): >64 µg/mL
MIC of partner antibiotic in the presence of PFOB at 1 mg/L (E.faecalis 78097 (van B); E.faecalis 78097 (van B), PFOB 1 mg/L): >64 µg/mL
MIC of partner antibiotic in the presence of PFOB at 2 mg/L (E.faecalis 78097 (van B); E.faecalis 78097 (van B), PFOB 2 mg/L): 32 µg/mL
MIC of partner antibiotic in the presence of PFOB at 4 mg/L (E.faecalis 78097 (van B); E.faecalis 78097 (van B), PFOB 4 mg/L): 16 µg/mL
MIC of partner antibiotic in the presence of PFOB at 8 mg/L (E.faecalis 78097 (van B); E.faecalis 78097 (van B), PFOB 8 mg/L): 16 µg/mL
MIC of partner antibiotic in the presence of PFOB at 16 mg/L (E.faecalis 78097 (van B); E.faecalis 78097 (van B), PFOB 16 mg/L): 8 µg/mL
MIC of partner antibiotic in the presence of PFOB at 32 mg/L (E.faecalis 78097 (van B); E.faecalis 78097 (van B), PFOB 32 mg/L): 4 µg/mL
MIC of PFOB & Partner: Partner concentration (E.faecalis 78097 (van B); E.faecalis 78097 (van B), optimum synergistic combination with PFOB, second figure (partner)): 16 µg/mL
MIC (E.faecalis 78097 (van B); Enterococcus faecalis, E.faecalis 78097 (van B), partner antibiotic alone, read-out: MIC (alone) of Partner): > 64 µg/mL
synergy with PFOB (E.faecalis 78097 (van B); checkerboard, E. faecalis 78097, vanB-mediated vancomycin resistance, in words): Synergy was also observed
effect on growth (viable count, time-kill) [1]: some inhibitory effect on growth
MIC of partner antibiotic in the presence of PFOB at 0.5 mg/L (E. faecalis ATCC 10541; E. faecalis ATCC 10541, PFOB 0.5 mg/L): >64 µg/mL
MIC of partner antibiotic in the presence of PFOB at 1 mg/L (E. faecalis ATCC 10541; E. faecalis ATCC 10541, PFOB 1 mg/L): >64 µg/mL
MIC of partner antibiotic in the presence of PFOB at 2 mg/L (E. faecalis ATCC 10541; E. faecalis ATCC 10541, PFOB 2 mg/L): >64 µg/mL
MIC of partner antibiotic in the presence of PFOB at 4 mg/L (E. faecalis ATCC 10541; E. faecalis ATCC 10541, PFOB 4 mg/L): >64 µg/mL
MIC of partner antibiotic in the presence of PFOB at 8 mg/L (E. faecalis ATCC 10541; E. faecalis ATCC 10541, PFOB 8 mg/L): 8 µg/mL
MIC of partner antibiotic in the presence of PFOB at 16 mg/L (E. faecalis ATCC 10541; E. faecalis ATCC 10541, PFOB 16 mg/L): 4 µg/mL
MIC of partner antibiotic in the presence of PFOB at 32 mg/L (E. faecalis ATCC 10541; E. faecalis ATCC 10541, PFOB 32 mg/L): <0.06 µg/mL
MIC (E. faecalis ATCC 10541; E. faecalis ATCC 10541, optimum synergistic combination of PFOB with the labelled partner, first figure (PFOB), read-out: MIC of PFOB & Partner: PFOB concentration): 8 µg/mL
MIC (E. faecalis ATCC 10541; E. faecalis ATCC 10541, optimum synergistic combination with PFOB, second figure (partner), read-out: MIC of PFOB & Partner: Partner concentration): 8 µg/mL
MIC (E. faecalis ATCC 10541; E. faecalis ATCC 10541, partner antibiotic alone, read-out: MIC (alone) of Partner): > 64 µg/mL
synergy with PFOB (E. faecalis ATCC 10541; checkerboard, E. faecium ATCC 10541 (as named), vancomycin-susceptible, in words): marked synergy
MIC (E. hirae ATCC 10541): > 128 µg/mL
MIC (E. faecalis 24592): > 128 µg/mL
MIC (E. faecalis SFZ): > 128 µg/mL
MIC (E. faecium NCTC 7171): > 128 µg/mL
MIC (E. faecalis Phillips): > 128 µg/mL
MIC (E. faecalis NCTC 5957): > 128 µg/mL
MIC (Enterococcus strains; read-out: MIC of CAZ used in conjunction with PFOB, PFOB at 4 mg/L): < 0.06 µg/mL
MIC (Enterococcus strains; read-out: MIC of CAZ used in isolation): > 128 µg/mL
reduction in the MIC of CAZ by PFOB (Enterococcus strains; PFOB at 4 mg/L versus CAZ in isolation): about 2,000 fold
activity in isolation against the Enterococcus strains tested (Enterococcus strains; compound alone, all strains of Table 1, in words): no activity
